# Measured values as given in patent publication US4933347A, “Diamidines and bis(imidazolines) for the treatment of and prophylaxis against pneumocystis carinii pneumonia” (University of North Carolina at Chapel Hill, priority 1988, dated 1990).
# Columns and labels:
# Pneumocystis carinii = experiment: Treatment of Pneumocystis carinii pneumonia in Sprague-Dawley rats (extent of disease by histologic score); format: in vivo, male Sprague-Dawley rats; conditions: for Extent of Disease by Histologic Score: number of animals with score 0.5 / Extent of Disease by Histologic Score: number of animals with score 1 / Extent of Disease by Histologic Score: number of animals with score 2 / Extent of Disease by Histologic Score: number of animals with score 3 / Extent of Disease by Histologic Score: number of animals with score 4: 14 days; for Extent of Disease by Histologic Score: number of animals with score 0.5 / Extent of disease by histologic score (combined): number of animals in scoring group 0.5: 0.5 = <10 cysts found per 2 sections; for Extent of Disease by Histologic Score: number of animals with score 1 / Extent of disease by histologic score (combined): number of animals in scoring group 1: 1 = scattered cysts, <5% of lung involved; for Extent of Disease by Histologic Score: number of animals with score 2 / Extent of disease by histologic score (combined): number of animals in scoring group 2: 2 = scattered cysts; for Extent of Disease by Histologic Score: number of animals with score 2: 5-10% lung involved or small foci of infection; for Extent of Disease by Histologic Score: number of animals with score 3 / Extent of disease by histologic score (combined): number of animals in scoring group 3: 3 = scattered cysts; for Extent of Disease by Histologic Score: number of animals with score 3: 10-50% of lung involved with some intense areas of infection; for Extent of Disease by Histologic Score: number of animals with score 4: 4 = >50% of lung involved with many intense areas of focal infection; for Extent of disease by histologic score (combined): number of animals in scoring group 0.5 / Extent of disease by histologic score (combined): number of animals in scoring group 1 / Extent of disease by histologic score (combined): number of animals in scoring group 2 / Extent of disease by histologic score (combined): number of animals in scoring group 3 / Extent of disease by histologic score (combined): number of animals in scoring group 4: Table XII composite; for Extent of disease by histologic score (combined): number of animals in scoring group 2: 5-10% of lung involved; for Extent of disease by histologic score (combined): number of animals in scoring group 3: 10-50% of lung involved; for Extent of disease by histologic score (combined): number of animals in scoring group 4: 4 = >50% of lung involved; for Efficacy in treating PCP compared with related compounds of the series: effect of chain length or substituent
# Method: Induction and Treatment Of Pneumocystis Carinii in Sprague-Dawley Rats
# Male Sprague-Dawley rats, barrier raised, non-certified virus free, weighing 150-200g were obtained from Hilltop Laboratories and housed individually. Animals were begun on a low (8%) protein diet (ICN Biomedicals, Cincinnati, OH) and drinking water containing tetracycline (0.5 mg/ml) and dexamethasone (1.0 μg/ml) immediately upon arrival. This treatment was given for the next 8 weeks, monitoring fluid intake daily and weighing animals weekly. Dilutions of the drinking solution were made when animals consumed too much fluid so as to prevent cortisone poisoning. At the beginning of the sixth week, animals were divided into groups of 8 animals each and the test compounds were administered daily by i.v. injection at a dose of 10 mg/kg, unless otherwise noted, for the next 14 days.
# Animals were sacrificed at the end of the eighth week by chloroform inhalation and the left lung was removed aseptically and placed in sterile Hank's balanced salts solution without calcium or magnesium (HBSS-) for the ground tissue procedure. The right lung was inflated in situ with 10% […] and removed for histologic examination GMS staining. […]
# [1] = Toxicity of amidines in rats (standard laboratory procedure); format: in vivo; conditions: rat, in vivo, 5 mg/kg
# Method: Compounds having the structure represented by Formula I were synthesized in accordance with the appropriate procedures discussed previously. The reaction schemes shown in Charts I-III specifically identify the methodology used to synthesize the compounds of the respective examples. The compounds which were synthesized are shown in Table IA and the elemental analysis and melting points of the compounds are shown in Table IB. Most of the compounds were tested for toxicity in rats using standard laboratory procedure and the results of that toxicity testing are shown in Table XII. The compounds of Examples 31, 32, and 34 were not synthesized but may be synthesized in the general manner discussed previously.
# [2] = 10 mg/kg unless otherwise noted
SMILES,Extent of disease by histologic score (combined): number of animals in scoring group 0.5 (Pneumocystis carinii; 10 mg/kg) [animals],Extent of disease by histologic score (combined): number of animals in scoring group 1 (Pneumocystis carinii; 10 mg/kg) [animals],Extent of disease by histologic score (combined): number of animals in scoring group 2 (Pneumocystis carinii; 10 mg/kg) [animals],Extent of disease by histologic score (combined): number of animals in scoring group 3 (Pneumocystis carinii; 10 mg/kg) [animals],Extent of disease by histologic score (combined): number of animals in scoring group 4 (Pneumocystis carinii; 10 mg/kg) [animals],Extent of Disease by Histologic Score: number of animals with score 0.5 (Pneumocystis carinii; 10 mg/kg i.v. daily) [animals],Extent of Disease by Histologic Score: number of animals with score 1 (Pneumocystis carinii; 10 mg/kg i.v. daily) [animals],Extent of Disease by Histologic Score: number of animals with score 2 (Pneumocystis carinii; 10 mg/kg i.v. daily) [animals],Extent of Disease by Histologic Score: number of animals with score 3 (Pneumocystis carinii; 10 mg/kg i.v. daily) [animals],Extent of Disease by Histologic Score: number of animals with score 4 (Pneumocystis carinii; 10 mg/kg i.v. daily) [animals],further results
COc1cc(C(=N)N)ccc1OCCCOc1ccc(C(=N)N)cc1OC [Example 6],,,,,,,,,,,"Extent of Disease by Histologic Score: number of animals with score 0.5 (Pneumocystis carinii; 5 mg/kg i.v. daily): 7 animals; Extent of Disease by Histologic Score: number of animals with score 1 (Pneumocystis carinii; 5 mg/kg i.v. daily): 1 animals; Extent of Disease by Histologic Score: number of animals with score 2 (Pneumocystis carinii; 5 mg/kg i.v. daily): 0 animals; Extent of Disease by Histologic Score: number of animals with score 3 (Pneumocystis carinii; 5 mg/kg i.v. daily): 0 animals; Extent of Disease by Histologic Score: number of animals with score 4 (Pneumocystis carinii; 5 mg/kg i.v. daily): 0 animals; Extent of disease by histologic score (combined): number of animals in scoring group 0.5 (Pneumocystis carinii; tested at 5 mg/kg): 7 animals; Extent of disease by histologic score (combined): number of animals in scoring group 1 (Pneumocystis carinii; tested at 5 mg/kg): 1 animals; Extent of disease by histologic score (combined): number of animals in scoring group 2 (Pneumocystis carinii; tested at 5 mg/kg): 0 animals; Extent of disease by histologic score (combined): number of animals in scoring group 3 (Pneumocystis carinii; tested at 5 mg/kg): 0 animals; Extent of disease by histologic score (combined): number of animals in scoring group 4 (Pneumocystis carinii; tested at 5 mg/kg): 0 animals; Efficacy in treating PCP compared with control (Pneumocystis carinii; compound at 5 mg/kg): significantly better, at one half the dose, than the control; Toxicity of amidines: Effect [1]: None"
N=C(N)c1cccc(OCCCCCOc2cccc(C(=N)N)c2)c1 [Example 28],4,3,6,2,1,,,,,,
N=C(N)c1cccc(OCCCCCCOc2cccc(C(=N)N)c2)c1 [Example 29],1,4,1,2,0,1,4,1,2,0,
c1cc(C2=NCCN2)ccc1OCCCCCOc1ccc(C2=NCCN2)cc1 [Example 30],5,3,0,0,0,5,3,0,0,0,Efficacy in treating PCP compared with pentamidine (Pneumocystis carinii; [2]): comparable to or perhaps slightly better than pentamidine
N=C(N)c1ccc(NCCNc2ccc(C(=N)N)cc2N)c(N)c1 [Example 33],0,0,4,3,1,0,0,4,3,1,Efficacy in treating PCP compared with control (Pneumocystis carinii; [2]): better than the control; Efficacy in treating PCP compared with pentamidine (Pneumocystis carinii; [2]): worse than pentamidine
N=C(N)c1ccc(NCCCNc2ccc(C(=N)N)cc2N)c(N)c1 [Example 36],1,4,2,0,0,1,4,2,0,0,Efficacy in treating PCP compared with related compounds of the series (Pneumocystis carinii): better than the nitro substituted compounds
N=C(N)c1ccc(NCCCCNc2ccc(C(=N)N)cc2N)c(N)c1 [Example 37],0,4,3,1,0,0,4,3,1,0,Efficacy in treating PCP compared with related compounds of the series (Pneumocystis carinii): better than the nitro substituted compounds
N=C(N)c1ccc(NCCCCCCNc2ccc(C(=N)N)cc2)cc1 [Example 39],,,,,,2,1,0,0,0,
c1cc(C2=NCCN2)ccc1OCCCCOc1ccc(C2=NCCN2)cc1 [Example 40],1,2,3,1,0,1,2,3,1,0,Efficacy in treating PCP compared with control (Pneumocystis carinii; [2]): significantly better than the control
